Among the data in BindingDB's records for doi:10.7270/Q2MC8XP5 (Burnham Center For Chemical Genomics, 2013) are IC50 values, retold here.

Structures are written as SMILES.

In general, IC50 refers to the concentration needed to halve the response being measured. The low end stands for higher potency, the high end for lower potency.

Protein artemis, sequence (Q96SD1 whole entry): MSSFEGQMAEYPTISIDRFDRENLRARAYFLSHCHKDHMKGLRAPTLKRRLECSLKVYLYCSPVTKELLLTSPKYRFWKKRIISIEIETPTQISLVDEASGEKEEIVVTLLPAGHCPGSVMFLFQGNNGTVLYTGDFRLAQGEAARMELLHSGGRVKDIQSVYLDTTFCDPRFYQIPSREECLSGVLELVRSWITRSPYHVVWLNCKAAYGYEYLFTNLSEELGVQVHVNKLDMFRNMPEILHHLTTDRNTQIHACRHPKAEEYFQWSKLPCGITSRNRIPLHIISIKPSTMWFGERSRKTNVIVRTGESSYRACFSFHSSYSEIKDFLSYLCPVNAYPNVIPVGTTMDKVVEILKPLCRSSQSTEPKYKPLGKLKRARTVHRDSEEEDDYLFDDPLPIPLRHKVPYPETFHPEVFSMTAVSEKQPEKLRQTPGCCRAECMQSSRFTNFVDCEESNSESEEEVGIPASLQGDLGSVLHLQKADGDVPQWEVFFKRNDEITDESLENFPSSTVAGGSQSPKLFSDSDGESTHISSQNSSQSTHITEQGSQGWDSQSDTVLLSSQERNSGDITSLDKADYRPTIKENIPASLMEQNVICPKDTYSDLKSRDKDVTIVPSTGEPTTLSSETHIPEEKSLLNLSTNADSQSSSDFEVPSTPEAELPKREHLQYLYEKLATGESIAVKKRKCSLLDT

The assay addresses Protein artemis (Homo sapiens, UniProt Q96SD1). Briefly: Artemis endonuclease inhibitor potency, dose response, biochemical, fluorescence intensity (AID 720701).
Consider `COc1ccc(Nc2nc(N=NCc3ccccc3)nc(NCc3ccco3)n2)cc1`, for which the midpoint of inhibition, the IC50, lay at 2.65 µM.

For `Cc1cccc(CN2C(=O)N/C(=C/c3ccc(C)s3)C2=O)c1`, the half-inhibitory concentration (IC50) was 16.4 µM.

As to `CN1c2cccc3cccc(c23)C1N=O` (stereo unspecified) [1-Methyl-1H-benzo[cd]indol-2-one oxime], the IC50 is over 20 µM.

As to `CCCCCCCCCC(N=O)c1ccccn1` (stereo unspecified) [1-Pyridin-2-yl-decan-1-one oxime], the concentration for half-maximal inhibition (IC50) is 11 µM.

As to `CCCCOc1ccc(/C=C2/Sc3ccccc3C2=O)cc1` [2-(4-Butoxy-benzylidene)-benzo[b]thiophen-3-one], the 50% inhibitory concentration (IC50) is over 20 µM.

`N#CC(C(=O)NCc1ccccc1)c1nc2ccccc2nc1N1CCCC1` (stereo unspecified) [2-cyano-N-(phenylmethyl)-2-(3-pyrrolidin-1-ylquinoxalin-2-yl)ethanamide]: the IC50 came to 5 µM.

In turn, `CCCCc1ccc(/C=C2\C(=O)ON=C2c2ccccc2)s1` [4-(5-Butyl-thiophen-2-ylmethylene)-3-phenyl-4H-isoxazol-5-one] gave an IC50 of 16.2 µM.

Regarding `N#CC1C(=N)Oc2[nH]nc(-c3cccs3)c2C1c1ccoc1` (stereo unspecified) [6-amino-4-(furan-3-yl)-3-thiophen-2-yl-2,4-dihydropyrano[2,3-c]pyrazole-5-carbonitrile], the concentration for half-maximal inhibition (IC50) was over 20 µM.

As to `C=CCN1C(=O)S/C(=C\c2ccc(N3CCOCC3)cc2C)C1=O` [(5Z)-5-[[2-methyl-4-(4-morpholinyl)phenyl]methylidene]-3-prop-2-enylthiazolidine-2,4-dione], the midpoint of inhibition, the IC50, lay at 1.5 µM.

As to `COc1ccc(O)c(CN=Nc2nc(Nc3ccccc3)nc(-n3nc(C)cc3C)n2)c1` [(6E)-6-[[2-[4-(3,5-dimethylpyrazol-1-yl)-6-phenylazanyl-1,3,5-triazin-2-yl]hydrazinyl]methylidene]-4-methoxy-cyclohexa-2,4-dien-1-one], the IC50 was 2.23 µM. The IC50 values of the last two molecules are within 1.5-fold of each other.

Regarding `O=C1C=Cc2ccccc2/C1=C/NC12CN3CCN(CN(C3)C1)C2` [MLS000071484], half-maximal inhibition (IC50) was put at 3.64 µM. This IC50 lies about 1.6-fold higher than the previous one.

The molecule `NS(=O)(=O)c1ccc2c(c1)C1C=CCC1C(C1CC=CCC1)N2` (stereo unspecified) [MLS000530517] yielded a concentration for half-maximal inhibition (IC50) of 9.58 µM.

Take `CCN(CC)c1ccc(CN=Nc2nc3ccccc3[nH]2)c(O)c1` [MLS000541069]: the IC50 is 15.5 µM.

Turning to `CC(N=O)c1ccccc1C(=O)O` (stereo unspecified) [SMR000038583], 3.62 µM corresponded to half-maximal inhibition (IC50).

For the molecule `CCOc1ccc(-n2c(O)c(C=Nc3ccc(N4CCOCC4)cc3)c(=O)[nH]c2=O)cc1` [SMR000109118], the half-inhibitory concentration (IC50) was over 20 µM.

As to `O=c1c2ccccc2nc(N=NCc2c(O)ccc3ccccc23)n1O` [SMR000145705], the 50% inhibitory concentration (IC50) came to 4.68 µM.
